Measured values from PMC5748433, “Study on the effect of EMD386088, a 5-HT6 receptor partial agonist, in enhancing the anti-immobility action of some antidepressants in rats” (Naunyn-Schmiedeberg's Archives of Pharmacology, 2017).
Values joined by “and” are separate entries in the source; they are usually repeats but may differ in a detail not shown here. Equal entries are not always repeated.

Legend:
rats [1] = assay: Modified forced swim test (FST) in rats; type: in vivo, rat; details: EMD386088 alone 2.5 mg/kg i.p.
Description: […]. All drugs were dissolved in distilled water immediately before administration in a volume of 2 mL/kg. All the compounds were administered intraperitoneally (i.p.). […] Control animals received vehicle according to the same schedule.
The experiment was carried out according to the modified by Detke et al. ([1995]) method of Porsolt et al. ([1978]). On the first day of an experiment, the animals were gently individually placed in Plexiglas cylinders (40 cm high, 18 cm in diameter) containing 30 cm of water maintained at 23–25 °C for 15 min. On removal from water, the rats were placed for 30 min in a Plexiglas box under 60-W bulb to dry. On the following day (24 h later), the rats were re-placed in the cylinder and the total duration of immobility, swimming, and climbing was recorded during the whole 5-min test period. The swimming behavior entailed active swimming motions, e.g., moving horizontally around in the cylinder. Climbing activity consisted of upward directed movements of the forepaws along the side of the swim chamber, and immobility was assigned when no additional activity was observed other than that necessary to keep the rat’s head above the water (Detke et al. [1995]). Fresh water was used for each animal.
(§1) The data of behavioral studies were evaluated using two-way analysis of variance (ANOVA) followed by Bonferroni’s post hoc test, p < 0.05 was considered significant.

rats [2] = assay: Open field (OF) test in rats, locomotor/exploratory activity; type: in vivo, rat; details: 2.5 mg/kg i.p. 30 min before test, 5-min session, mean ± SEM, 2.5 mg/kg
Description: All drugs were dissolved in distilled water immediately before administration in a volume of 2 mL/kg. All the compounds were administered intraperitoneally (i.p.). […] Control animals received vehicle according to the same schedule.
The experiment was performed using Motor Monitor System (Campden Instruments, Ltd., UK) consisted of two SmartFrame Open Field stations (40 × 40 × 38 cm) with 16 × 16 beams, located in sound attenuating chambers and connected to PC software by control chassis. Individual vehicle- or drug-injected animals were gently placed in the center of the station. An automated motor monitor system recorded ambulation (the number of crossings in X and Y axis), the number of rearing episodes, and total distance covered by a rat for 5 min.
as §1

[3] = Metabolic stability in rat liver microsomes (RLMs); type: in vitro ADME
Description: The in silico study was performed by MetaSite 5.1.1 provided by Molecular Discovery Ltd. The highest metabolism probability sites and the prediction of the structures of metabolites were analyzed during this study by liver computational model (Cruciani et al. [2005]).
Commercial, pooled, rat liver microsomes (RLMs) were purchased from Sigma-Aldrich (St. Louis, USA). The biotransformations were carried out using 1 mg/mL of RLMs in 200 μL of reaction buffer containing 0.1 M Tris-HCl (pH 7.4) and EMD386088 with final […] 50 μM. The reaction mixture was preincubated at 37 °C for 5 min and then, the reaction was initiated by adding 50 μL of NADPH Regeneration System (Promega, Madison, WI, USA). The reaction was terminated after 30 or 120 min by the addition of 200 μL of cold methanol. The mixture was next centrifuged at 14000 rpm for 15 min and the UPLC/MS analysis of the supernatant was performed. Mass spectra was recorded on UPLC/MS system consisted of a Waters Acquity UPLC (Waters, Milford, USA), coupled to a Waters TQD mass spectrometer (electrospray ionization mode ESI-tandem quadrupole).

recombinant human CYP2D6 = biological target: T1, recombinant human CYP2D6 (Homo sapiens, UniProt P10635); assay: Luminescent CYP2D6 P450-Glo assay; type: in vitro ADME; details: read-out: IC 50 CYP2D6
T1 construct: purchased Promega (Madison, WI, USA)
T1 sequence (P10635 whole entry): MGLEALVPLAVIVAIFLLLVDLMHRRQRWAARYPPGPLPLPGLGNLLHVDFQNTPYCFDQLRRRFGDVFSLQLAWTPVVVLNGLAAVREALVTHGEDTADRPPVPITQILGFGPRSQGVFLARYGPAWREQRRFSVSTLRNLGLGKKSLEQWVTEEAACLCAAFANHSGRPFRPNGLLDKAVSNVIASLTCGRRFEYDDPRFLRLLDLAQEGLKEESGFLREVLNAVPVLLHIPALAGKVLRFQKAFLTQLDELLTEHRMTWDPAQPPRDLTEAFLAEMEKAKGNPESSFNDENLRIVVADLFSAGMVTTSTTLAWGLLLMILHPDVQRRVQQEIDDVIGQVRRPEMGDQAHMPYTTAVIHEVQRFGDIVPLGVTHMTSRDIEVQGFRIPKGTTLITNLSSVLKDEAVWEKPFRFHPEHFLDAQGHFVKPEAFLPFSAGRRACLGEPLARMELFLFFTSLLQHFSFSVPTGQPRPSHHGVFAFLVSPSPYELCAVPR
Description: (§2) The enzymatic reactions were performed in white polystyrene, flat-bottom Nunc™ MicroWell™ 96-Well Microplates (Thermo Scientific, Waltham, MA USA). The luminescence signal was measured with a microplate reader in luminescence mode (EnSpire, PerkinElmer, Waltham, MA USA).

recombinant human CYP3A4 = recombinant human CYP3A4 (Homo sapiens, UniProt P08684); details: recombinant human CYP3A4, P450-Glo, 0.025 to 25 μM
Chain of recombinant human CYP3A4 (P08684 whole entry): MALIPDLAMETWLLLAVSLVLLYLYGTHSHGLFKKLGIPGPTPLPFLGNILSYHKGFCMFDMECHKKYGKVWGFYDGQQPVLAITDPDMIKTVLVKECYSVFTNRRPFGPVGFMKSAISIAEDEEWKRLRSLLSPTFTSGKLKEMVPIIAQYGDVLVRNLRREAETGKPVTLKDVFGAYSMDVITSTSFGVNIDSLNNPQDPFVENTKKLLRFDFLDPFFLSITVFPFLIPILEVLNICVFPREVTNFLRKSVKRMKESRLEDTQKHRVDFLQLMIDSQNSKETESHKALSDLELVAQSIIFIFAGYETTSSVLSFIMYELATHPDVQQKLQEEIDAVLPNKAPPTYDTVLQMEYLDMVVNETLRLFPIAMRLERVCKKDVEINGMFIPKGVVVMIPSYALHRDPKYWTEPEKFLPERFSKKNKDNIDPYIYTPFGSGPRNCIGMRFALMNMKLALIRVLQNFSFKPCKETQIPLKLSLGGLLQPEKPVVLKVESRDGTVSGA
Description: as §2

rats [4] = test system: rats; parameters: method as in Jastrzębska-Więsek et al. [2015]; details: EMD386088 alone 5 mg/kg i.p., ref Jastrzębska-Więsek et al. [2015]; cited from earlier work
α1-adrenoceptors = test system: α1-adrenoceptors; parameters: method as in Jastrzębska-Więsek et al. [2013]; details: ref Jastrzębska-Więsek et al. [2013]; cited from earlier work

Cc1[nH]c2ccc(Cl)cc2c1C1=CCNCC1.Cl [EMD386088, 5-chloro-2-methyl-3-(1,2,3,6-tetrahydro-4-pyridinyl)-1H-indole hydrochloride]
activity in the FST (rats [1]): not active
Exploratory activity Ambulation X (rats [2]): 261 ± 29 and 262 ± 28 and 262 ± 35 and 263 ± 28
Exploratory activity Ambulation Y (rats [2]): 261 ± 31 and 267 ± 37 and 262 ± 23
Exploratory activity Rearings (rats [2]): 90 ± 3 and 91 ± 4 and 89 ± 4 and 92 ± 9
Exploratory activity Total distance (cm) (rats [2]): 2677 ± 232 cm and 2721 ± 196 cm and 2644 ± 220 cm and 2722 ± 145 cm
compound metabolized in the presence of RLMs ([3]; RLMs 1 mg/mL, EMD386088 50 μM, after 120 min, 37 °C): ~40%
main metabolic pathway ([3]; in silico (MetaSite) and in vitro (RLMs) studies): dehydrogenation of tetrahydropyridine moiety
IC50 (recombinant human CYP2D6): 2250 nM
influence on CYP3A4 activity (recombinant human CYP3A4): did not influence on CYP3A4 activity
antidepressant-like effect in the FST (rats [4]): exerts an antidepressant-like effect
affinity for α1-adrenoceptors (α1-adrenoceptors): no affinity
